Assay results reported in ChEMBL document CHEMBL6103622 (J Med Chem, 2025).
The source made the active and inactive calls. The calls are words filed in the database; no cut-off is given here.

Assays:
[1] = AUC (0 to infinity) in Sprague-Dawley rat at 1 mg/kg, iv; assay type: ADME, organism-based; details: in vivo
[2] = tested on: BMDM; experiment: Induction of repolarization of M2 like macrophage into M1 phenotype in female C57BL/6 mouse BMDM cells assessed as decrease in Arg1 mRNA expression at 10 to 100 nM stimulated with mouse IL4/IL-13 for 24 hrs followed by compound addition and measured after 24 hrs by qPCR analysis; assay type: functional, cell-based; details: dose 10-100 nM
[3] = Apparent volume of distribution in Sprague-Dawley rat at 1 mg/kg, iv; assay type: ADME, organism-based; details: in vivo, read-out: Vz
[4] = molecular target: T1, Macrophage colony-stimulating factor 1 receptor (Mus musculus) (UniProt P09581); experiment: Inhibition of CSF-1R signaling pathway activation in female C57BL/6 mouse BMDM cells assessed as reduction in CSF-1R phosphorylation preincubated with compounds for 4 hrs followed by M-CSF stimulation and measured after 30 mins by Western blot analysis; assay type: cell-based; details: dose 10-100 nM, time 4.5 hrs
T1 sequence (whole entry): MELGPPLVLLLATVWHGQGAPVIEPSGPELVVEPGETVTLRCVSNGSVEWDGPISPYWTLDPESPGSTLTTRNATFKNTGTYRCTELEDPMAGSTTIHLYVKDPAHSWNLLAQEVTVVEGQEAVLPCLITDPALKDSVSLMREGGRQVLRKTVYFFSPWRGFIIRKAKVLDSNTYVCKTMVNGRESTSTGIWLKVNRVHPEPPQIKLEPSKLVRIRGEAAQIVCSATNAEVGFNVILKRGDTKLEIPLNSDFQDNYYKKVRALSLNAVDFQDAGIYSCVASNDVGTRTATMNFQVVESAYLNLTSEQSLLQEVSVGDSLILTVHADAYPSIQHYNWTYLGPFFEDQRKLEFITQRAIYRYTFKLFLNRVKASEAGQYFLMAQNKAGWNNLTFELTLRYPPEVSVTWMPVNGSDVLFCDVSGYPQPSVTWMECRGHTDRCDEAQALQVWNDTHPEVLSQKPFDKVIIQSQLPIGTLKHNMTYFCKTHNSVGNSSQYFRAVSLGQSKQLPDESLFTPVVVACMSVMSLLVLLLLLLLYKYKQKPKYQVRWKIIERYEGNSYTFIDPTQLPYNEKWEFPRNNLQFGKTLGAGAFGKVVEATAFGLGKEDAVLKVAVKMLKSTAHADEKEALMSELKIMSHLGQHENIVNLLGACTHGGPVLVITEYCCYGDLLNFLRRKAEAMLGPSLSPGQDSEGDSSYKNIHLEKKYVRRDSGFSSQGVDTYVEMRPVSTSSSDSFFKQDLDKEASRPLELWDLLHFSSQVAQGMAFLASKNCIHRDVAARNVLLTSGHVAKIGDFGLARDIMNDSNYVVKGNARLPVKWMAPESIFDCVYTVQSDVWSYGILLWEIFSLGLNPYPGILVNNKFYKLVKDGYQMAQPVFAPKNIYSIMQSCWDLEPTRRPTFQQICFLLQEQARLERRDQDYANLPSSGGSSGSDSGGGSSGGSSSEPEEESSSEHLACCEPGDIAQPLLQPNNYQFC

[5] = tested on: MC-38; experiment: Inhibition of cell proliferation in mouse MC38 cells cocultured with condition medium of M2 macrophages at 10 to 100 nM incubated for 20 hrs by CCK8 assay; assay type: functional, cell-based; details: dose 10-100 nM
[6] = Tmax in Sprague-Dawley rat at 10 mg/kg, po; assay type: ADME, organism-based; details: in vivo
[7] = Cmax in Sprague-Dawley rat at 10 mg/kg, po; assay type: ADME, organism-based; details: in vivo
[8] = tested on: Colorectal cancer organoid; experiment: Antitumor activity against patient derived CRC organoids cocultured with IL-4/13 stimulated M2 macrophages assessed as lytic death state at 10 to 100 nM incubated for 72 hrs; assay type: functional, tissue-based; details: Homo sapiens, Colorectum, dose 10-100 nM
[9] = molecular target: T1, Macrophage colony-stimulating factor 1 receptor (Mus musculus); experiment: Inhibition of CSF-1R signaling pathway activation in female C57BL/6 mouse BMDM cells assessed as reduction in AKT phosphorylation preincubated with compounds for 4 hrs followed by M-CSF stimulation and measured after 30 mins by Western blot analysis; assay type: cell-based; details: dose 10-100 nM, time 4.5 hrs
[10] = tested on: MC-38; experiment: Antitumor activity against mouse MC38 cells allografted in C57BL/6 mouse model assessed as reduction in tumor weight at 20 mg/kg, ip administered once daily for 14 days relative to control; assay type: functional; parameters: scale not given: the % may be the effect or the level left; details: time 14 day
[11] = molecular target: T1, Macrophage colony-stimulating factor 1 receptor (Mus musculus); experiment: Inhibition of CSF-1R signaling pathway activation in female C57BL/6 mouse BMDM cells assessed as reduction in AKT phosphorylation at Ser473 residue at 100 nM preincubated with compounds for 4 hrs followed by M-CSF stimulation and measured after 30 mins by Western blot analysis; assay type: cell-based; details: time 4.5 hrs
[12] = molecular target: T1, Macrophage colony-stimulating factor 1 receptor (Mus musculus); experiment: Inhibition of CSF-1R signaling pathway activation in female C57BL/6 mouse BMDM cells assessed as reduction in CSF-1R phosphorylation at Tyr723 residue at 100 nM preincubated with compounds for 4 hrs followed by M-CSF stimulation and measured after 30 mins by Western blot analysis; assay type: cell-based; details: time 4.5 hrs
[13] = AUC (0 to infinity) in Sprague-Dawley rat at 10 mg/kg, po; assay type: ADME, organism-based; details: in vivo
[14] = tested on: MC-38; experiment: Antitumor activity against mouse MC38 cells allografted in C57BL/6 mouse model assessed as reduction in tumor volume at 10 to 20 mg/kg, ip administered once daily for 14 days; assay type: functional, organism-based; details: dose 10-20 mg/kg, time 14.0 day
[15] = molecular target: Macrophage colony-stimulating factor 1 receptor (Homo sapiens, UniProt P07333); experiment: Binding affinity to recombinant CSF-1R (unknown origin) assessed as equilibrium dissociation constant by SPR analysis
[16] = tested on: MC-38; experiment: Antitumor activity against mouse MC38 cells allografted in C57BL/6 mouse model assessed as reduction in tumor volume at 10 mg/kg, ip administered once daily for 14 days relative to control; assay type: functional; parameters: scale not given: the % may be the effect or the level left; details: time 14 day
[17] = tested on: MC-38; experiment: Antitumor activity against mouse MC38 cells allografted in C57BL/6 mouse model assessed as reduction in tumor weight at 10 mg/kg, ip administered once daily for 14 days relative to control; assay type: functional; parameters: scale not given: the % may be the effect or the level left; details: time 14 day
[18] = tested on: Colorectal cancer organoid; experiment: Antitumor activity against patient derived CRC organoids assessed as reduction in number of organoids at 10 to 100 nM incubated for 72 hrs; assay type: functional, tissue-based; details: Homo sapiens, Colorectum, dose 10-100 nM
[19] = tested on: MC-38; experiment: Antitumor activity against mouse MC38 cells allografted in C57BL/6 mouse model assessed as downregulation of Mrc1 mRNA expression in tumor at 10 to 20 mg/kg, ip administered once daily for 14 days by qPCR analysis; assay type: functional, organism-based; details: dose 10-20 mg/kg, time 14.0 day
[20] = molecular target: T1, Macrophage colony-stimulating factor 1 receptor (Mus musculus); experiment: Binding affinity to CSF-1R in female C57BL/6 mouse BMDM cells assessed as decrease in protein solubility at 100 nM incubated for 1 hrs in presence of 7 to 15 % of acetone/ethanol/acetic acid mixture by SIP assay; assay type: cell-based
[21] = tested on: MC-38; experiment: Induction of apoptosis in mouse MC38 cells cocultured with condition medium of M2 macrophages assessed as late apoptotic cells at 30 nM by Annexin V/PI staining based flow cytometric analysis (reference value: 1.66 %); assay type: functional
[22] = tested on: BMDM; experiment: Induction of repolarization of M2 like macrophage into M1 phenotype in female C57BL/6 mouse BMDM cells assessed as decrease in Chil3l mRNA expression at 10 to 100 nM stimulated with mouse IL4/IL-13 for 24 hrs followed by compound addition and measured after 24 hrs by qPCR analysis; assay type: functional, cell-based; details: dose 10-100 nM
[23] = AUC (0 to t) in Sprague-Dawley rat at 10 mg/kg, po; assay type: ADME, organism-based; details: in vivo

Chain of Macrophage colony-stimulating factor 1 receptor (P07333 whole entry): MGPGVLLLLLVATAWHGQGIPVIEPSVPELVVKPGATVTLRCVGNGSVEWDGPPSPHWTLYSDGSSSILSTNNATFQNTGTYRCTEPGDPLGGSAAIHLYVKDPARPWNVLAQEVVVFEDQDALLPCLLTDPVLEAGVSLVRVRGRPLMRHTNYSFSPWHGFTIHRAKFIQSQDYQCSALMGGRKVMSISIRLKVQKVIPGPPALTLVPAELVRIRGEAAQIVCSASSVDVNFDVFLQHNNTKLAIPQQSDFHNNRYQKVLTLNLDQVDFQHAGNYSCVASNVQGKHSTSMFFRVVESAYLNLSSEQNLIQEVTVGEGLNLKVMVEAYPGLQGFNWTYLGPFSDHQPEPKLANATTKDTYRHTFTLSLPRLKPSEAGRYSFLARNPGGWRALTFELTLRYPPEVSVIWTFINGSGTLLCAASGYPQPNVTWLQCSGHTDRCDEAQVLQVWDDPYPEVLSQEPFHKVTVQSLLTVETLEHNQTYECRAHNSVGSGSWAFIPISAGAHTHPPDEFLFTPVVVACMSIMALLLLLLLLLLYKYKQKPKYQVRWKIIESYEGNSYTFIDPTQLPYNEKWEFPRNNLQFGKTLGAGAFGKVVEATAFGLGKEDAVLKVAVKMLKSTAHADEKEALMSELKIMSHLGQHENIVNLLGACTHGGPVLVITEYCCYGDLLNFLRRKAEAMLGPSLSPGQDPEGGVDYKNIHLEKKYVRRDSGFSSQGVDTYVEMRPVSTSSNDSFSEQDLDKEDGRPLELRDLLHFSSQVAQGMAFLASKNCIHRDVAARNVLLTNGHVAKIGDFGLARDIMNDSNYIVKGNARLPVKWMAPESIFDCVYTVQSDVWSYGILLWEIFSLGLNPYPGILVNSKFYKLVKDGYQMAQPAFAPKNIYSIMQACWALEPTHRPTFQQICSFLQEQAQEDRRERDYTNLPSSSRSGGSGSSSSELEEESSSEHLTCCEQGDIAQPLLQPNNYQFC

AUC(0-inf) [1]: 0.527 µg·h/mL
Vd [3]: 3.28 L/kg
inhibition [4]: Dose-dependent-effect
Tmax [6]: 1.13 h
Cmax [7]: 1.58 µg/mL
inhibition [9]: Dose-dependent-effect
inhibition [11]: Active
inhibition [12]: Active
AUC(0-inf) [13]: 4.17 µg·h/mL
Kd [15]: 2.96 nM
Activity [20]: Active
AUC(0-t) [23]: 4.17 µg·h/mL
SMILES: Cc1nc(NC(=O)N[C@@H]2CCCC[C@H]2O)ccc1Oc1c[nH]c2ncc(Cl)cc12
Activity [2]: Active
inhibition [5]: Active
Activity [8]: Active
Activity [10]: 56%
Activity [14]: Active; Better Activity Observed Than Plx3397-Treated Group
Activity [16]: 38%
Activity [17]: 39%
Activity [18]: inactive
Activity [19]: Active
Activity [21]: 4.88%
Activity [22]: Active
